# The METLIN SMRT retention time set (Domingo-Almenara et al. 2019)
# Assay: gradient 5% acetonitrile 3 min, to 50% in 2 min, to 85% in 15 min, held 3 min, 100 µL/min
# Conditions: column: Zorbax Extend-C18 2.1 x 50 mm; eluents: water / acetonitrile, 0.1% formic acid
# Summary of the method: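 In both positive and negative ionization mode, a quadrupole time-of-flight mass spectrometer coupled to HPLC analyzed pure standards run in mixtures of ~100 molecules. The Zorbax Extend-C18 column (2.1 × 50 mm, 1.8 μm) was operated at 100 μL/min with water and acetonitrile, each containing 0.1% formic acid. The dead volume was 40 μL and the dwell volume 900 μL. Retention time came from adduct peaks that were computationally picked and individually inspected by hand.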
row,SMILES,RP-LC retention time [s]
1,CC(C)N1CCN(S(=O)(=O)c2ccc(-c3nnc(C4CCC4)o3)o2)CC1,637
2,O=S(=O)(c1cc(-c2ccno2)cs1)N(CCc1ccccc1)Cc1ccccc1,1200
3,CCC(CC)C(=O)Nc1nc(-c2ccc3c(c2)NC(=O)C(C)O3)c(C)s1 (stereo not given),922
4,O=C(NC1CCCCC1)C1CCN(S(=O)(=O)c2ccc(-c3noc(C4CC4)n3)cc2)CC1,928
5,Cc1cc(NC(=O)C2CCN(C(=O)c3snnc3C)CC2)no1,618
6,COc1cc(CCC(=O)Nc2c(C(=O)N3CCN(c4ccccn4)CC3)oc3ccccc23)on1,642
7,CCc1cc(=O)n(CC(=O)Nc2ccc(F)c(Cl)c2)c(N2CCOCC2)n1,828
8,Cc1ccc(-c2nc(-c3ccc(NS(=O)(=O)c4cccs4)cc3)no2)cc1F,1180
9,Cc1cc(C)cc(NS(=O)(=O)c2c(C)sc(C)c2-c2n[nH]c(C)c2C)c1,1110
10,O=C(NCc1ccccc1)c1ccc2c(c1)CCN2C(=O)C1CC1,794
11,COCCn1cc(C(=O)Nc2cccc(Cl)c2)c2nn(-c3ccccc3)c(=O)c-2c1,1050
12,CCCC(CCC)C(=O)NCCS(=O)(=O)N1CCN(c2ccccn2)CC1,594
13,Cc1nc2cc(NC(=O)c3cn(C)nn3)ccc2s1,629
14,CC(C)(C)C(=O)N1CCCC(c2nc(CCNC(=O)C3CC3)cs2)C1 (stereo not given),710
15,CCc1ccc(CNC(=O)c2cc3n(n2)CC(C)(C(=O)NCCC(C)C)N(C)C3=O)cc1 (stereo not given),860
16,CCOC(=O)C(C)Sc1nnc(CNC(=O)c2ccc(OC)cc2)n1C1CCCCC1 (stereo not given),805
17,CCOc1cccc(CN2CCc3nc(N4CCN(c5ccccc5)CC4)ncc3C2)c1,785
18,Cc1ccc(S(=O)(=O)N2CC(=O)N(c3ccccc3F)C(C)(C(=O)NCCC(C)C)C2)cc1 (stereo not given),1020
19,COc1ccccc1NC(=O)N1CCC2(C1)C(=O)N(C)c1ccccc12 (stereo not given),818
20,Cc1ccc(S(=O)(=O)N2CCC(CC(=O)NCCN(C)Cc3ccccc3)CC2)cc1,683
21,Cc1ccn2cc(-c3ccc(NC(=O)c4ccccc4)cc3)nc2n1,636
22,COc1cc(C(=O)Nc2cccc(-c3cn4cccnc4n3)c2)cc(OC)c1OC,642
23,CCCn1cc(C(=O)NCC(=O)OCC)c(S(=O)(=O)N2CCN(c3ccc(Cl)cc3)CC2)n1,1040
24,O=C(NCC(c1cccnc1)c1c[nH]c2ccccc12)Nc1ccc(Br)cc1F (stereo not given),716
25,CCCc1nc(-c2c(C)cc(C)nc2NC(=O)c2cc(C)ccc2C)no1,946
26,c1ccc(CNc2cc(-n3ccnc3)ncn2)cc1,610
27,Cc1ccc(F)c(NS(=O)(=O)c2cc3n(c2)CCCNC3=O)c1,654

row,SMILES,RP-LC retention time [s]
1,Cn1c(=O)c2ccn(CC(=O)NCc3cccc(Cl)c3)c2n(C)c1=O,703
2,Cc1ccc(NC(=O)N2CC(c3nc(C(C)C)nn3C)C2)cc1F,706
3,COc1ccc(S(=O)(=O)N2CCC(c3noc(-c4ccc(C)cc4)n3)CC2)cc1,1150
4,Fc1ccc(OCc2nnc3sc(Cc4ccc5c(c4)OCCO5)nn23)cc1,913
5,Cc1cc2c(=O)n(CC(=O)N3CCCc4ccccc43)c3cccnc3n2n1,767
6,N#CC1CC(c2ccccc2)Nc2cc(Cl)ccc2N1 (stereo not given),912
7,CC(C)n1cnc(S(=O)(=O)N2CCCC(C(=O)Nc3cccc4c3CCCC4)C2)c1 (stereo not given),865
8,CN(C)c1ccc(C(=O)NCC(C)(O)c2ccco2)cc1 (stereo not given),665
9,O=C(NCc1csc(C2CCN(C(=O)Cc3ccccc3Cl)CC2)n1)C1CCC1,753
10,CCOc1ccccc1CNC(=O)C1CCN(S(=O)(=O)c2ccc3c(c2)sc(=O)n3C)CC1,878
11,Cc1cc(OCC(=O)Nc2ccc3c(c2)OCO3)nc(N2CCN(c3ccccc3)CC2)n1,776
12,CCC(=O)Nc1ccc2c(c1)CN(C(=O)c1ccccc1Cl)C(C(=O)N1CCCC1)C2 (stereo not given),714
13,CC(C)NC(=O)C1CCCN(S(=O)(=O)c2c[nH]c(C(=O)N3CCCCCC3)c2)C1 (stereo not given),734
14,Cc1ccc(NC(=O)c2cccn2Cc2noc(C3CC3)n2)c(Cl)c1,1030
15,O=C(Cn1cnc2c(-c3ccc(Cl)cc3)csc2c1=O)N1CCCC1,838
16,O=C(O)c1cn2ccnc(-c3ccc(F)cc3)c2n1,688
17,COCCCNC(=O)N1CCCC1c1ccccc1Cl (stereo not given),797
18,Cc1ccc(-n2nc(C(=O)N3CCN(c4ncccn4)CC3)c3ncn(C)c(=O)c32)cc1,726
19,CC(C)C(=O)N1CCc2cc(C(=O)N3CCCC3)ccc21,720
20,Cc1ncccc1C(=O)N1[C@H]2CC[C@@H]1c1cnc(-c3ccc(F)cc3)nc1C2,705
21,Cc1oc2ccn(Cc3cccc(F)c3)c(=O)c2c1C(=O)NCc1ccc(F)cc1F,954
22,COc1ccc(NC(=O)Cn2nc3n(c2=O)CCCC3)c(OC)c1,642
23,Cc1cccc(NC(=O)N2[C@H]3CC[C@@H]2c2cnc(C)nc2C3)c1,663
24,CCOC(=O)c1ccc(NC2=NS(=O)(=O)C(c3ccc(F)cc3)=C2C)cc1,948
25,CC(C)OCCCNC(=O)CCC(=O)N1CC2CCCN2c2ccccc21 (stereo not given),822
26,O=C(NC1CCCCC1)C1CCCN(c2ccc3cc(S(=O)(=O)N4CCCCC4)ccc3n2)C1 (stereo not given),832
27,O=C(NCCC1CCN(C(=O)Nc2ccc(F)cc2)CC1)c1ccoc1,716

# Second part, the compound after the results:
row,RP-LC retention time [s],SMILES
1,698,COc1ccc(-c2nc(-c3ccc(-n4ccnc4)nc3)no2)c(OC)c1
2,619,CC1OC2(CS1)CN1CCC2CC1 (stereo not given)
3,654,Cc1cc(NC(=O)Cn2cnc(-c3cccs3)cc2=O)sn1
4,961,O=C(NC1CCCCC1)c1cn(-c2cc(-c3nc(C4CC4)no3)ccn2)cn1
5,708,Cc1ccc(CNC(=O)Cn2cnc3nc(N4CCC(C(=O)NC5CC5)CC4)sc3c2=O)cc1
6,766,CCOC(=O)c1nn(-c2ccc(F)cc2)c(=O)cc1NCC1CCCO1 (stereo not given)
7,922,Cc1nc(-c2cn(C)c3ncccc23)sc1C(=O)Nc1ccccc1F
8,842,CCOC(=O)C1CCN(C(=O)Cn2nc(C)c3sc(-c4ccccc4)nc3c2=O)CC1
9,815,O=C(Nc1nnc(SCc2nnc(-c3ccc4c(c3)OCO4)o2)s1)c1cccs1
10,735,Cc1nc2cc(N3CCCC(C(=O)NCc4cccc(F)c4)C3)cnc2nc1C (stereo not given)
11,673,CN1C(=O)c2cccn2CC1C(=O)Nc1ccccc1F (stereo not given)
12,930,CCCn1nnc2cc(-c3noc(C4CC(=O)N(c5ccccc5)C4)n3)ccc21 (stereo not given)
13,894,O=C(NCc1ccc(-c2noc(Cc3ccc(F)cc3)n2)s1)C1CC1
14,570,Cc1nn(C)c(C)c1CCN(C)C(=O)C1CCCCC(=O)N1 (stereo not given)
15,632,CC(C)NC(=O)N1CC[C@H](n2c(=O)n(C)c3cccnc32)C1
16,644,c1ccc(-c2cn3ccccc3n2)cc1
17,1030,O=C(Cn1cc(-c2nc(-c3ccc(Cl)cc3)no2)ccc1=O)NC1CCCCC1
18,815,COC[C@@H]1CN(C(=O)c2cc(C)oc2C)C[C@H]1c1nc(C2CC2)no1

row,RP-LC retention time [s],SMILES
1,938,COc1ccccc1NC(=O)C(C)C1CCN(C(=O)Nc2ccc(Cl)cc2)CC1 (stereo not given)
2,795,Cc1ccc(C)c(NC(=O)Cc2c(C(=O)O)c(C)cn2C)c1
3,922,CCOc1ccc(C(=O)N2CCC3(CC2)N=C(c2ccc(Cl)cc2)NO3)cc1
4,926,CCCn1nnc2cc(-c3noc(CN4C(=O)COc5ccccc54)n3)ccc21
5,755,COc1cc(C(CC(=O)NC2CCCC2)N2Cc3ccccc3C2=O)cc(OC)c1OC (stereo not given)
6,602,CC1CN(C(=O)CCC(=O)NCCCN2CCN(C3CCCCC3)CC2)c2ccccc2O1 (stereo not given)
7,636,CCOc1ccc(-n2c(CN3CCN(C(=O)NC4CCCC4)CC3)nc3cccnc32)cc1
8,767,Cc1ccc(Cl)cc1NC(=O)CC1COc2ccccc2NC1=O (stereo not given)
9,690,Cc1cccc(NC(=O)Nc2ccc3nncn3c2)c1
10,664,O=C([C@@H]1C[C@H](F)CN1S(=O)(=O)c1ccc(F)cc1)N1CCOCC1
11,858,C(=N\n1cnnc1)/c1ccc2c(c1)CCC2
12,749,CCn1c(=O)sc2cc(S(=O)(=O)N3CCC(C(=O)NC(C)C)CC3)ccc21
13,626,Cc1cnc(CCC2CCCN2C(=O)c2ccc(Cn3cncn3)o2)n1C(C)C (stereo not given)
14,686,CCOC(=O)c1c(C)[nH]c(CCC(=O)NCC2CCCO2)c1C (stereo not given)
15,652,CCN(Cc1ccc(C)cc1)Cc1cc(=O)n2cc(Cl)ccc2n1
16,679,Cc1ccc(S(=O)(=O)Nc2ccc(-c3cn4ccc(C)nc4n3)cc2)c(C)c1
17,1110,Cc1cccc(-c2nc(C3CC(=O)N(c4ccc(Cl)cc4)C3)no2)c1 (stereo not given)
18,677,Cc1ccc2nc(CN3CCN(C(=O)NCCc4ccccc4)CC3)oc2c1
